# Experimental data published in patent US8389526B2, “3-heteroarylmethyl-imidazo[1,2-b]pyridazin-6-yl derivatives” (Novartis AG, priority 2009, dated 2013).
# Assays:
# [1] = target: T1, c-Met receptor tyrosine kinase, GST-c-Met(969-1390) (Homo sapiens, UniProt P08581); assay: EPK c-Met profiling assay (LanthaScreen TR-FRET kinase assay); format: biochemical; conditions: 2 μM ATP, 0.3 nM enzyme, 60 minutes at room temperature
# T1 construct: made in house
# Experimental: A number of compounds of the present invention were assayed in an antibody based kinase phosphorylation assay as follows.
# Epk c-Met Profiling Assay:
# The EPK kinase assay for c-Met receptor tyrosine kinase was developed, using the purified recombinant GST-fusion protein, containing the cytoplasmic domain of the enzyme. GST-c-Met(969-1390) was purified by affinity chromatography.
# The kinase assay is based on the LanthaScreen™ technology. LanthaScreen™ is the detection of Time-Resolved Fluorescence Resonance Energy Transfer (TR-FRET) using lanthanide chelates to measure interactions between various binding partners. In a TR-FRET kinase assay, a long-lifetime lanthanide donor species is conjugated to an antibody that specifically binds to a phosphorylated product of a kinase reaction that is labeled with a suitable acceptor fluorophore. This antibody-mediated interaction brings the lanthanide donor and the acceptor into proximity such that resonance energy transfer can take place, resulting in a detectible increase in the FRET signal.
# The kinase reactions were performed in 384 well microtiter plates in a total reaction volume of 9.05 μL. The assay plates were prepared with 0.05 μL per well of test compound in the appropriate test concentration, as described under “preparation of compound dilutions”. The reactions were started by combining 4.5 μL of ATP solution with 4.5 μL of enzyme-substrate mix (consisting of kinase and substrate). The final concentrations in the kinase reactions were 35 mM Tris/HCl, 1 mM DTT, 0.025% Tween20, 10 μM sodium orthovanadate, 0.25% BSA, 0.6% DMSO, 10 mM MgCl2, 3 mM MnCl2, 2 μM ATP, 50 nM Fluorescein-PolyEAY, and 0.3 nM enzyme.
# The reactions were incubated for 60 minutes at room temperature and stopped by adding 4.5 μL of stop buffer (50 mM EDTA, 0.04% NP40, 20 mM Tris/HCl).
# Subsequently 4.5 μL of detection mix (50 mM Tris/HCl, 2 mM DTT, 0.05% Tween20, 20 μM sodium orthovanadate, 1% BSA, 1.72 μg/mL Tb-PY20 antibody) were added to the stopped reactions. After 30 minutes incubation at room temperature, the plates were measured in a BMG Pherastar fluorescence reader. The effect of compound on the enzymatic activity was in all assays obtained from the linear progress curves and determined from one reading (end point measurement).
# Preparation of Compound Dilutions
# Test compounds were dissolved in DMSO (10 mM) and transferred into 1.4 mL flat bottom or V-shaped Matrix tubes carrying a unique 2D matrix. The stock solutions were stored at −20° C. if not used immediately. For the test procedure the vials were defrosted and identified by a scanner whereby a working sheet was generated that guided the subsequent working steps.
# Compound dilutions were made in 96 well plates. This format enabled the assay of maximally 40 individual test compounds at 8 concentrations (single points) including 4 reference compounds. The dilution protocol included the production of “pre-dilution plates”, “master plates” and “assay plates”.
# Pre-dilution plates: 96 polypropylene well plates were used as pre-dilution plates. A total of 4 pre-dilution plates were prepared including 10 test compounds each on the plate positions A1-A10, one standard compound at A11 and one DMSO control at A12. All dilution steps were done on a HamiltonSTAR robot.
# Master plates: 100 μL of individual compound dilutions including standard compound and controls of the 4 “pre-dilution plates” were transferred into a 384 “master plate” including the following concentrations 1′820, 564, 182, 54.6, 18.2, 5.46, 1.82 and 0.546 μM, respectively in 90% of DMSO.
# Assay plates: Identical “assay plates” were then prepared by pipetting 50 nL each of compound dilutions of the “master plates” into 384-well “assay plates” by means of a HummingBird 384-channel dispenser. These plates were used directly for the assay which was performed in a total volume of 9.05 μL. […]
# [2] = system: MET-amplified gastric cancer cell line GTL-16; assay: GTL-16 proliferation assay (MTS); format: cell-based; conditions: Homo sapiens, GTL-16 cells, 72 h incubation
# Experimental: (§1) C-Met Dependent Cellular Assays
# (§2) A number of compounds of the present invention were assayed in a c-Met dependent proliferation and phosphorylation assay as follows.
# GTL-16 proliferation assay: the MET-amplified gastric cancer cell line GTL-16 was grown under standard cell culture conditions in DMEM [Dulbecco's Modified Eagle Medium] (high glucose) supplemented with 10% heat-inactivated fetal calf serum and 2 mM L-glutamine. For proliferation assays, cells were seeded at 3000 per well in 96-well-plates. 24 h later, a 10-point dilution series of each compound (3-fold steps, ranging from […]) was prepared in DMSO. Compound were then diluted 1000-fold in growth media in two steps and added to cells in triplicates, resulting in a final volume of […] per well and maximal final compound concentrations of […]. A DMSO-only control was included. Cells were incubated for 72 h and the amount of viable cells was then measured by adding […] of MTS reagent (CellTiter 96® AQueous Non-Radioactive Cell Proliferation Assay, Promega), further incubation for 30′, and reading the optical density at 490 nm.
# c-Met = target: T2, c-Met (Homo sapiens, UniProt P08581); assay: GTL-16 c-Met autophosphorylation measured by AlphaScreen detection; format: cell-based; conditions: GTL-16 cells, 1 h incubation, AlphaScreen p-c-Met; read-out: GTL-16 IC50 c-Met phosphorylation
# T2 construct: adapted to measure the phosphorylation of endogenous cellular proteins in cell lysates; endogenous in cells; host or cells: GTL-16
# Experimental: as §1, §2
# GTL-16 c-Met autophosphorylation measured by AlphaScreen® detection: the human MET-amplified gastric cancer cells GTL-16 were plated in 384-well plates at a density of 10′000 cells in 20 ul complete growth medium (DMEM high glucose supplemented with 10% (v/v) heat inactivated fetal calf serum and of 1 mM sodium pyruvate) and were incubated at […]/5% CO2/95% humidity for 20 h. The cells were washed and the 30 ul assay buffer (DMEM high glucose, 1 mM sodium pyruvate, 0.1% bovine serum albumine) was added. Compounds were diluted in 384-well compound plates to obtain 8-point serial dilutions for 40 test compounds in 90% DMSO, as well as a reference compound plus 16 high- and 16 low (inhibited) controls. These compound plates were prediluted 1:200 in assay buffer into a compound predilution plate and 10 ul of prediluted compound solution were transferred to the cell plate using a 384-well pipettor, resulting in a final DMSO concentration of 0.11%. Cells were incubated for 1 h at […]/5% CO2/95% humidity. The supernatant was removed, the cells were lysed in 25 ul of RIPA [radio immuno precipitation assay] lysis buffer supplemented with 2 mM sodium vanadate and a protease inhibitor cocktail, and cell plates were stored at −80° C.
# For detection of p-c-Met, an AlphaScreen®-based assay was used. AlphaScreen® (Amplified Luminescent Proximity Homogeneous Assay, ALPHA, Perkin Elmer, U.S.A) is a non-radioactive bead-based proximity assay technology to study biomolecular interactions in a homogenous microtiter plate format. This technique has been adapted to measure the phosphorylation of endogenous cellular proteins in cell lysates by the use of specific antibody pairs against the total protein and a phospho-specific epitope. 5 ul of cell lysate was transferred to 384-well low volume Proxiplates for detection using a 384-well pipettor. First, 5 ul of a premix of an anti-c-Met antibody (0.25 ug/ml f.c.), a biotinylated PY20 antibody (phosphotyrosine antibody, 0.05 ug/ml f.c.) and AlphaScreen® Protein A-coupled acceptor beads (10 ug/ml f.c.) in RIPA buffer supplemented with 0.25% (v/w) TOP BLOCK, 2 mM sodium vanadate, and a protease inhibitor cocktail and was added, the plate was sealed, and incubated on a plate shaker for 2 hours at room temperature. Second, 2 ul of dilution buffer containing AlphaScreen® Streptavidin-coated donor beads (10 ug/ml f.c.) in RIPA buffer was added, and the plate was incubated on plate shaker as above for a further 2 hours. The plate was read on an AlphaScreen® compatible plate reader, using standard AlphaScreen® settings.
# T2 sequence (P08581 25-1390): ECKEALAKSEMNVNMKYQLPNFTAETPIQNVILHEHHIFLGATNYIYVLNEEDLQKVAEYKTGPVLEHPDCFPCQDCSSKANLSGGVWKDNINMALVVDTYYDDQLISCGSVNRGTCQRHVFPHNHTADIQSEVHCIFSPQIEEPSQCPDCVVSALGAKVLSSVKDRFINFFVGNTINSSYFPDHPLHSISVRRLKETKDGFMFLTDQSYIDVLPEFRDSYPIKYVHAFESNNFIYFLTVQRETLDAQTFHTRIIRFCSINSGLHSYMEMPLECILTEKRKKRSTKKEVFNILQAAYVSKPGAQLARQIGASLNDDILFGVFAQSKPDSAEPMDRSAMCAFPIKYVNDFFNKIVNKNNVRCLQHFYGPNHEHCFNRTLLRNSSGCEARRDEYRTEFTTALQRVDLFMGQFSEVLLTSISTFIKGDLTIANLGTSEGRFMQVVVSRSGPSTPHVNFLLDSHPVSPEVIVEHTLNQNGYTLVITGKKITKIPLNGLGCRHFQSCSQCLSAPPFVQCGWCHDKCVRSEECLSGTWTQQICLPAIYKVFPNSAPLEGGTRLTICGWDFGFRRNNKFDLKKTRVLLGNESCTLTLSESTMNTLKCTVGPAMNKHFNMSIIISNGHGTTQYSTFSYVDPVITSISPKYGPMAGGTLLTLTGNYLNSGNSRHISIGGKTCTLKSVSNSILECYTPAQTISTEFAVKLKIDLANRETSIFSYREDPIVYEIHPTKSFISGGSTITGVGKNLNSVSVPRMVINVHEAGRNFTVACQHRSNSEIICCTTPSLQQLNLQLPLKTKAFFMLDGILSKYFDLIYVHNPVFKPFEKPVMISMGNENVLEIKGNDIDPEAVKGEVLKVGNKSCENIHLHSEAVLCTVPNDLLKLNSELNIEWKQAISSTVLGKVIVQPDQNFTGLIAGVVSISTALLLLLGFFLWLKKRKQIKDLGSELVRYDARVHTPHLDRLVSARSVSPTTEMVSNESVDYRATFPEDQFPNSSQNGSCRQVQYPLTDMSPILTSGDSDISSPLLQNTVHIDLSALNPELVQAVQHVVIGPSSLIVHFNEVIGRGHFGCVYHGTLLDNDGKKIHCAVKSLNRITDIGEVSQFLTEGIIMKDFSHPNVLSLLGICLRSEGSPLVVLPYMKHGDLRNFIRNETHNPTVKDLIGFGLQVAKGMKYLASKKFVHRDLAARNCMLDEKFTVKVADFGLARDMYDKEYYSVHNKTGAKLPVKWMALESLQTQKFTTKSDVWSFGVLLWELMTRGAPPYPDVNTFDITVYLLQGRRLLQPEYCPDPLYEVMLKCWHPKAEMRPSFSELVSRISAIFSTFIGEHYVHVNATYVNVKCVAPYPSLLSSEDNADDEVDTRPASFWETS
# T1 sequence (P08581 969-1390): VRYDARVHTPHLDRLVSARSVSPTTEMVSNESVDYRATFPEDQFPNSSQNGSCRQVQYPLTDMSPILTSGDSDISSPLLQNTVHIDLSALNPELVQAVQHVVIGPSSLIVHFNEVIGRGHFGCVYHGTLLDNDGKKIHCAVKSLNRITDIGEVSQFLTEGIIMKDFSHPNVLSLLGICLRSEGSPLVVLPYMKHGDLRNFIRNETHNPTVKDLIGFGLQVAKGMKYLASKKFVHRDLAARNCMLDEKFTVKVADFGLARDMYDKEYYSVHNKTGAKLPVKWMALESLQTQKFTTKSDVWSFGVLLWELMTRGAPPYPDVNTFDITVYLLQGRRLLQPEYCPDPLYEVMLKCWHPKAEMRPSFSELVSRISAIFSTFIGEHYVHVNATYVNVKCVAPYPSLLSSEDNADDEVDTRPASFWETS
Compound,IC50 [1] [nM],IC50 [2] [nM],IC50 (c-Met) [nM]
"CC(c1c(F)cc2ncccc2c1F)c1cnc2ccc(N3CCN(C)C(=O)C3)nn12 (racemic) [Example 1, (rac)-4-{3-[1-(5,7-Difluoro-quinolin-6-yl)-ethyl]-imidazo[1,2-b]pyridazin-6-yl}-1-methyl-piperazin-2-one]",8.6,9.1,< 3
"C[C@@H](c1c(F)cc2ncccc2c1F)c1cnc2ccc(N3CCNC(=O)[C@H]3C)nn12 [Example 59, (R)-4-{3-[(S)-1-(5,7-Difluoro-quinolin-6-yl)-ethyl]-imidazo[1,2-b]pyridazin-6-yl}-3-methyl-piperazin-2-one]",3,5.6,3.6
"CC(c1c(F)cc2ncccc2c1F)c1cnc2ccc(N3CCN(C4CCCC4)C(=O)C3)nn12 (racemic) [Example 20, (rac)-4-{3-[1-(5,7-Difluoro-quinolin-6-yl)-ethyl]-imidazo[1,2-b]pyridazin-6-yl}-1-cyclopentylpiperazin-2-one]",27,21,7
"C[C@@H](c1c(F)cc2ncccc2c1F)c1cnc2ccc(N3CCN(C=O)CC3)nn12 [Example 13, 4-{3-[(S)-1-(5,7-Difluoro-quinolin-6-yl)-ethyl]-imidazo[1,2-b]pyridazin-6-yl}-piperazine-1-carbaldehyde]",< 3,9.2,2.5
"CN1CCN(c2ccc3ncc(Cc4ccc5ncccc5c4F)n3n2)CC1=O [Example 43, 4-[3-(5-Fluoro-quinolin-6-ylmethyl)-imidazo[1,2-b]pyridazin-6-yl]-1-methyl-piperazin-2-one]",84,–,–
"CC1C(=O)NCCN1c1ccc2ncc([C@@H](C)c3c(F)cc4ncccc4c3F)n2n1 (mixture of isomers) [Example 58, (rac)-4-{3-[(S)-1-(5,7-Difluoro-quinolin-6-yl)-ethyl]-imidazo[1,2-b]pyridazin-6-yl}-3-methyl-piperazin-2-one]",2.7,7.1,3.7
"C[C@@H](c1c(F)cc2c(cnn2C)c1F)c1cnc2ccc(N3CCNC(=O)C3)nn12 [Example 52, 4-{3-[(S)-1-(4,6-Difluoro-1-methyl-1H-indazol-5-yl)-ethyl]-imidazo[1,2-b]pyridazin-6-yl}-piperazin-2-one]",< 3,11,2.2
"COC(=O)N1CCN(c2ccc3ncc(C(C)c4c(F)cc5ncccc5c4F)n3n2)CC1 (racemic) [Example 14, (rac)-4-{3-[1-(5,7-Difluoro-quinolin-6-yl)-ethyl]-imidazo[1,2-b]pyridazin-6-yl}-piperazine-1-carboxylic acid methyl ester]",7.9,–,–
"CC(c1c(F)cc2ncccc2c1F)c1cnc2ccc(N3CCNC(=O)C3C)nn12 (racemic) [Example 18, (rac)-4-{3-[1-(5,7-Difluoro-quinolin-6-yl)-ethyl]-imidazo[1,2-b]pyridazin-6-yl}-3-methyl-piperazin-2-one]",8.3,9.2,–
"CC(=O)N1CCN(c2ccc3ncc(Cc4c(F)cc5c(cnn5C)c4F)n3n2)CC1 [Example 55, 1-(4-(3-((4,6-difluoro-1-methyl-1H-indazol-5-yl)methyl)imidazo[1,2-b]pyridazin-6-yl)piperazin-1-yl)ethanone]",29,–,–
"CC(=O)N1CCN(c2ccc3ncc(Cc4cc5cccnc5cc4F)n3n2)CC1 [Example 39, 1-{4-[3-(7-Fluoro-quinolin-6-ylmethyl)-imidazo[1,2-b]pyridazin-6-yl]-piperazin-1-yl}-ethanone]",84,–,–
"CN1CCN(c2ccc3ncc(Cc4cc5cccnc5cc4F)n3n2)CC1=O [Example 37, 4-[3-(7-Fluoro-quinolin-6-ylmethyl)-imidazo[1,2-b]pyridazin-6-yl]-1-methyl-piperazin-2-one]",58,–,–
"CC(c1c(F)cc2ncccc2c1F)c1cnc2ccc(N3CCN(C=O)CC3)nn12 (racemic) [Example 12, (rac)-4-{3-[1-(5,7-Difluoro-quinolin-6-yl)-ethyl]-imidazo[1,2-b]pyridazin-6-yl}-piperazine-1-carbaldehyde]",8,–,–
"O=C1CN(c2ccc3ncc(Cc4cc5cccnc5cc4F)n3n2)CCN1 [Example 38, 4-[3-(7-Fluoro-quinolin-6-ylmethyl)-imidazo[1,2-b]pyridazin-6-yl]-piperazin-2-one]",31,–,–
"CC(=O)N1CCN(c2ccc3ncc(Cc4ccc5ncccc5c4F)n3n2)CC1 [Example 45, 1-{4-[3-(5-Fluoro-quinolin-6-ylmethyl)-imidazo[1,2-b]pyridazin-6-yl]-piperazin-1-yl}-ethanone]",170,–,–
"C[C@H](c1c(F)cc2ncccc2c1F)c1cnc2ccc(N3CCNC(=O)C3)nn12 (single isomer, unassigned) [Example 4]",680,–,–
